Results as given in paper PMC9458217, “Synthesis and Biological Evaluation of Cassane Diterpene (5α)-Vuacapane-8(14), 9(11)-Diene and of Some Related Compounds” (Molecules, 2022).
In brackets after ≈: the same amount, converted by molar mass. Several values for one entry are separate records, joined by “and”; a condition that tells them apart may be missing. Equal entries are not always repeated. Where two headings read alike, the source gives them in different places.

How the values were obtained:
[1] = tested on: HepG2 human hepatocarcinome cell-line; experiment: MTT cytotoxicity on HepG2 cells; conditions: HepG2, 72 h
Procedure: (§2) These studies were performed using the MTT assay, based on formazan dye formation and expressed as a percentage with respect to untreated control cells (100% of cell metabolism).
(§3) The effect of compounds on the cell viability was determined by the MTT method [27] (Sigma, St. Louis, MO, USA). The cytotoxicity of the compounds was detected by measuring the absorbance of MTT dye staining of cells with metabolism capacity. […] Finally, after 72 h, 100 μL of MTT solution (0.5 mg/mL) in 50% of PBS and 50% of the medium was added to each well. After 1.5 h of incubation, formazan was re-suspended in 100 μL of DMSO, and each concentration was tested in triplicate.
(§4) Experimental cytotoxicity data were fitted to a sigmoidal function (y = ymax/ (x/a)^−b) by non-linear regression. […] All shown data are representative of at least two independent experiments performed in triplicate. All quantitative data were summarized as the means ± standard deviation (SD).

[2] = tested on: B16-F10 mouse melanoma cells; experiment: MTT cytotoxicity on B16-F10 cells
Procedure: as §2, §3, §4

[3] = tested on: LPS-stimulated RAW 264.7 murine macrophage cells; experiment: Inhibition of NO production (nitrite, Griess reaction) in LPS-stimulated RAW 264.7 cells; format: cell-based; conditions: for IC50 NO / IC50: LPS-activated RAW 264.7, 72 h of incubation; for IC50: Mus musculus, RAW264.7, 72 h; for NO inhibition: 72 h
Procedure: The activation of the inflammatory process induces nitric oxide, NO, released as a second messenger. NO production can be used as the main indicator to assess inflammatory activity, which can be measured using nitrite (NO^2–) quantification (proportional to the released NO), determined through the Griess reaction. […] Inhibition percentages were calculated with respect to the increase between positive control (only LPS treated control cells) and negative control (untreated control cells).
The absorbance was referred to nitrite standard curve to determine the concentration of nitrite in the supernatant of each experimental sample. The percentage of NO production was determined, assigning 100% at the increase between negative control (untreated cells) and positive control (cells only treated with 10 μg/mL of LPS).
(§1) Experimental cytotoxicity data were fitted to a sigmoidal function (y = ymax/ (x/a)^−b) by non-linear regression. […] Similar analyses were performed to obtain the IC50 of NO production (IC50 NO). All shown data are representative of at least two independent experiments performed in triplicate. All quantitative data were summarized as the means ± standard deviation (SD).

[4] = tested on: RAW 264.7 cells, activated by LPS; experiment: Cell cycle distribution of LPS-activated RAW 264.7 cells, flow cytometry with PI; format: cell-based, murine
Procedure: The cell-cycle distribution was analyzed by flow cytometry with propidium iodide (IP) staining (Figure 3). Significant growth arrest of the cell cycle in LPS-induced RAW 264.7 cells produced 100% detention in the G0/G1 phase (positive control) compared to the negative control (49.6%). After incubation with compound 20, the percentage of cells found in the G0/G1 phase was 29%, 32%, and 36%, respectively, at the assayed concentrations. Similar results were found for compound 16 (35%, 38%, and 39%) after 72 h of incubation at the same concentrations. This decrease was accompanied by the consequent increase in the number of cells in the S phase: 70%, 68%, and 56%, respectively, for compound 20, and 63%, 61%, and 59% for compound 16. […] This recovery of the cell cycle with respect to control cells (only LPS treated) could be a consequence of the anti-inflammatory effect produced by the tested compounds, which increase cell division, rescuing RAW 264.7 cells from LPS-induced arrest during their monocyte/macrophage differentiation process.
DNA content is directly proportional to the PI fluorescence; it allows us to determine the percentage of cells in each cell cycle phase. Using a fluorescence-activated cell sorter (FACS) at 488 nm in an Epics XL flow cytometer (Coulter Corporation, Hialeah, FL, USA), cell subpopulations could be visualized with different DNA contents. […] By treating cells only with LPS, the positive control was performed. However, the negative control was prepared, exposing cells […]. After treatment, cells were washed twice with PBS and trypsine solution, then resuspended in TBS 1X (10 Mm Tris, 150 Mm NaCl) and then Vindelov buffer (100 mM Tris, 100 Mm NaCl, 10 mg/mL Rnasa, 1 mg/mL PI, pH 8) was added. The samples were placed for 15 min on ice. Immediately before FACS analysis, cells were stained with 20 μL of 1 mg/mL PI solution. Data were analyzed to determine the percentage of cells in each cell cycle phase (G0/G1, S, and G2/M).

[5] = tested on: RAW 264.7 monocyte/macrophage murine cells; experiment: MTT cytotoxicity on RAW 264.7 cells; format: cell-based; conditions: Mus musculus
Procedure: MTT is transformed to formazan in cells with metabolism capacity (viable cells), as the number of viable cells is proportional to formazan concentration; this assay was used to determine the cytotoxicity of the compounds.
In all experiments, subconfluent monolayer cells were used.
The effect of compounds on the cell viability was determined by the MTT method (Sigma, St. Louis, MO, USA). The cytotoxicity of the compounds was detected by measuring the absorbance of MTT dye staining of cells with metabolism capacity. […] Finally, after 72 h, 100 μL of MTT solution (0.5 mg/mL) in 50% of PBS and 50% of the medium was added to each well. After 1.5 h of incubation, formazan was re-suspended in 100 μL of DMSO, and each concentration was tested in triplicate.
as §1

[6] = tested on: HT29 human colorectal adenocarcinoma cell line; experiment: MTT cytotoxicity on HT29 cells; conditions: HT-29, 72 h
Procedure: as §2, §3, §4

[7] = tested on: LPS-induced J774.A1 macrophage cells; set-up: method as in PMID 34990974; conditions: 50 μM, natural compounds; cited from earlier work
[8] = RAW264.7, RAW 264.7, MTT, 72 h of incubation, 20% cell viability inhibition, read-out: IC20
[9] = RAW264.7, RAW 264.7, MTT, 72 h of incubation, read-out: IC50
[10] = RAW264.7, RAW 264.7, MTT, 72 h of incubation, 80% cell viability inhibition, read-out: IC80

Compound | IC50 [1] [µg/mL] | IC50 ([2]; 72 h) | IC50 ([2]; Mus musculus, B16-F10, 72 h) [µg/mL] | IC50 [3] [µg/mL] | NO inhibition ([3]; at ¾ IC50 concentration) | IC20 [5, 8] [µg/mL] | IC50 [5, 9] [µg/mL] | IC50 ([6]; HT29, MTT, 72 h) [µg/mL] | IC80 [5, 10] [µg/mL] | also measured
COC(=O)C1=C(C(=O)OC)C2(C)CC[C@H]3C(C)(C)CCC[C@]3(C)C2=CC1=O (some centres unmarked) [Compound 16] | 26.7 ± 0.88 (≈ 71.4 µM) | 6.01 ± 0.41 µg/mL (≈ 16 µM) | < 10 | 2.98 ± 0.04 (≈ 7.96 µM) | 100% | 14.5 ± 0.68 (≈ 38.7 µM) | 26.7 ± 0.88 (≈ 71.4 µM) | 11.9 ± 0.8 (≈ 31.8 µM) | – | IC50 NO [3]: 5.71 ± 0.14 µg/mL (≈ 15.2 µM); NO inhibition ([3]; at ¼ IC50 concentration): 100%; NO inhibition ([3]; at ½ IC50 concentration): 100%; cells in the S phase ([4]; ¼ IC50, 72 h): 63%; percentage of cells in the G0/G1 phase ([4]; ¼ IC50, 72 h, LPS control 100%, negative control 49.6%): 35%; changes in the G2/M phase ([4]; ¼, ½ and ¾ IC50, 72 h): not significant; cells in the S phase ([4]; ½ IC50, 72 h): 61%; percentage of cells in the G0/G1 phase ([4]; ½ IC50, 72 h): 38%; cells in the S phase ([4]; ¾ IC50, 72 h): 59%; percentage of cells in the G0/G1 phase ([4]; ¾ IC50, 72 h): 39%
CC1(C)CCC[C@]2(C)c3cc(O)c(CO)cc3CC[C@@H]12 [Compound 24] | 24.2 ± 2.71 (≈ 88.3 µM) | – | 10.51 ± 0.01 (≈ 38.3 µM) | 15.2 ± 2.13 (≈ 55.4 µM) | did not cause any inhibition of NO release | 9.09 ± 0.03 (≈ 33.1 µM) | 13.94 ± 0.07 (≈ 50.8 µM) | 17.4 ± 1.97 (≈ 63.5 µM) | 20.8 ± 0.48 (≈ 75.6 µM) | –
CC1(C)CCC[C@]2(C)c3cc(O)c(C=O)cc3CC[C@@H]12 [Compound 23] | 8.36 ± 1.77 (≈ 30.7 µM) | – | 4.33 ± 0.27 (≈ 15.9 µM) | 3.22 ± 0.05 (≈ 11.8 µM) | 78.48% | 5.13 ± 0.18 (≈ 18.8 µM) | 5.87 ± 0.18 (≈ 21.6 µM) | 5.19 ± 0.17 (≈ 19.1 µM) | 6.8 ± 0.24 (≈ 25 µM) | IC50 NO [3]: 3.32 ± 0.05 µg/mL (≈ 12.2 µM)
Cc1c2c(cc3occc13)[C@@]1(C)CCCC(C)(C)[C@@H]1CC2 [Compound 7, (5a)-vouacapane-8(14),9(11)-diene] | 14 ± 0.5 (≈ 49.4 µM) | – | 31.7 ± 1.1 (≈ 112 µM) | – | – | – | – | – | – | IC20 ([5]; RAW264.7, 72 h): 50.9 ± 1.61 µg/mL (≈ 180 µM); IC50 ([5]; RAW264.7, 72 h): 57.5 ± 1.06 µg/mL (≈ 204 µM); IC80 ([5]; RAW264.7, 72 h): 65.5 ± 0.95 µg/mL (≈ 232 µM); IC50 [6]: 20.7 ± 1.09 µg/mL (≈ 73.2 µM); inhibition of NO production [7]: did not show any significant inhibition of NO production
CC1(C)CCC[C@]2(C)c3cc4c(cc3CC[C@@H]12)CC(=O)O4 [Compound 25] | 77.97 ± 0.72 (≈ 274 µM) | – | 74.3 ± 2.19 (≈ 261 µM) | 22.58 ± 0.05 (≈ 79.4 µM) | 72.24% | 42.6 ± 0.74 (≈ 150 µM) | 53.92 ± 0.36 (≈ 190 µM) | 74.3 ± 2.19 (≈ 261 µM) | 66.33 ± 0.35 (≈ 233 µM) | –
COC(=O)c1c(O)cc2c(c1C)CC[C@H]1C(C)(C)CCC[C@]21C [Compound 18] | 13.57 ± 0.12 (≈ 42.9 µM) | 5.96 ± 0.35 µg/mL (≈ 18.8 µM) | < 10 | 31.4 ± 4.9 (≈ 99.1 µM) | 11.06% | 7.32 ± 2.53 (≈ 23.1 µM) | 13.1 ± 1.51 (≈ 41.4 µM) | 30.7 ± 0.49 (≈ 96.9 µM) | 20.4 ± 0.26 (≈ 64.4 µM) | –
COC(=O)c1c(O)cc2c(c1C(=O)OC)CC[C@H]1C(C)(C)CCC[C@]21C [Compound 17] | 8.15 ± 0.1 (≈ 22.6 µM) | 5.96 ± 0.55 µg/mL and 5.97 ± 0.55 µg/mL | < 10 | 4.74 ± 1.27 (≈ 13.2 µM) | 30.52% | 4.95 ± 0.13 (≈ 13.7 µM) | 7.49 ± 0.86 (≈ 20.8 µM) | 5.96 ± 0.55 (≈ 16.5 µM) | 11.8 ± 2.97 (≈ 32.7 µM) | –
COC(=O)C1=C(C(=O)OC)C2(C)CC[C@H]3C(C)(C)CCC[C@]3(C)C2=CC1 (some centres unmarked) [Compound 15] | 58.32 ± 0.32 (≈ 162 µM) | – | 13 ± 1.8 (≈ 36.1 µM) | 7.98 ± 0.1 (≈ 22.1 µM) | – | 43.7 ± 2.37 (≈ 121 µM) | 64.6 ± 1.39 (≈ 179 µM) | 25.3 ± 0.89 (≈ 70.2 µM) | 83.67 ± 0.64 (≈ 232 µM) | –
Cc1c(CO)c(O)cc2c1CC[C@H]1C(C)(C)CCC[C@]21C [Compound 19] | 12.2 ± 1.78 (≈ 42.4 µM) | – | 48.8 ± 2.79 (≈ 169 µM) | 27.57 ± 0.2 (≈ 95.6 µM) | – | 70.83 ± 0.28 (≈ 246 µM) | 74.65 ± 0.17 (≈ 259 µM) | 49 ± 0.72 (≈ 170 µM) | 78.94 ± 0.28 (≈ 274 µM) | –
COC(=O)c1ccc2c(c1C(=O)OC)CC[C@H]1C(C)(C)CCC[C@]21C [Compound 14] | 33.8 ± 0.8 (≈ 98 µM) | 9.25 ± 0.74 µg/mL (≈ 26.9 µM) | < 10 | 10.7 ± 1.14 (≈ 31.1 µM) | – | 22.92 ± 0.13 (≈ 66.5 µM) | 24.67 ± 0.04 (≈ 71.6 µM) | 15.4 ± 2.72 (≈ 44.8 µM) | 26.89 ± 0.02 (≈ 78.1 µM) | –
Cc1c2c(cc3c1CC[C@H]1C(C)(C)CCC[C@]31C)OC(=O)C2 [Compound 5, pterolobirin H] | – | – | – | – | – | – | – | – | – | IC20 ([5]; RAW264.7, 72 h): 34.9 ± 2.11 µg/mL (≈ 117 µM); IC80 ([5]; RAW264.7, 72 h): 64.2 ± 3.29 µg/mL (≈ 215 µM)
